As a reminder, the EC50 is the midpoint of the concentration-response curve.

The first experiment concerns primary hepatocytes isolated from rats. Nature of the experiment: Hepatocyte protective effect against substances deriving hepatocyte toxicity (WST-1 viability). The experiment is classed as cell-based. As to conditions: Rattus norvegicus, Hepatocyte, doxorubicin, 24-48 h, read-out: EC50, cell protective effects against doxorubicin in hepatocytes. The procedure:
Various endogenous/exogenous attacks on the cells trigger the mechanisms of cell death which is broadly classified into two types, i.e. apoptosis or necrosis. Using these cell death mechanisms, in the present experimental example, primary hepatocytes isolated from rats were treated with drugs which were clinically shown to result in serious side-effects of hepatocyte toxicity or various chemicals which derive cell death, and the compounds synthesized in the Examples were estimated for their hepatocyte protective effects, after 24-48 h. The substances used to derive hepatocyte death include CCl4, ActD, H2O2, doxorubicin, anti-Fas Ab/Actinomycin D, acetaminophen, EtOH, CdCl2, palmitate, stearate, cyclophosphamide, terfenadine, diclofenac, simvastatin, and adefovir. Primary hepatocytes were isolated using the method of Seglen PO (Experimental Cell Research 74 (1972) pp 450-454). Briefly, hepatocytes were isolated according to the two-step collagenase perfusion method, and dead cells were removed by low speed (500 rpm) centrifugation for 10 min using percoll gradient (Kreamer B L etc, In Vitro Cellular & Developmental Biology 22 (1986) pp 201-211). During this step, the viability of cells was maintained 90% or above. The cells were suspended in HepatoZYME media (Gibco BRL), and the number of cells was counted. 1.5×10^4 cells in 100 μl were placed into the collagen-coated 96-well plate (BD biocoat), and adhered on the bottom for 3-4 h.
In order to assess the hepatocyte protective effect, above adhered cells were pretreated with the Example compounds for 30 min. At this time, the concentration of the Example compounds were serially diluted by 2-fold or 3-fold over 5 steps starting from 30 uM, 10 uM or 1 uM depending on the experiments, and the final concentration of DMSO was adjusted to 0.2%. 30 min after the treatment by compounds, cells were treated by the substances deriving hepatocyte death or hepatotoxic drugs at the concentrations indicated in Table 1. After 24-48 h, the viability of cells was determined to estimate the hepatocyte protective effects. The viability of cells was determined using WST-1 (MK-400, […]) method by the absorbance at 440 nm. Hepatocyte protective effects of the Example compounds were represented by “EC50,” which was calculated from measured values. “EC50” herein means the concentration of the compound at which 50% of maximum protective effect is observed in the experiment.
On to `Cc1cc(NC2CCN(C)CC2)c2[nH]c(-c3ccccc3)cc2c1` [Example 44, (1-Methylpiperidin-4-yl)-(5-methyl-2-phenyl-1H-indol-7-yl)-amine], for which the EC50 was found to be 170 nM. Same read-out and setting: the figure for `CC(=O)N1CCC(Nc2cc(C)cc3cc(-c4ccccc4)[nH]c23)CC1` [Example 45, 1-[-4-[(5-Methyl-2-phenyl-1H-indol-7-yl)amino]piperidin-1-yl]ethanone] is 210 nM; for `Clc1cc(NC2CCCC2)c2[nH]c(-c3ccccc3)cc2c1` [Example 46, Cyclopentyl-(5-chloro-2-phenyl-1H-indol-7-yl)-amine] it is 50 nM.

Take `Clc1cc(NC2CCCCC2)c2[nH]c(-c3ccccc3)cc2c1` [Example 47, Cyclohexyl-(5-chloro-2-phenyl-1H-indol-7-yl)-amine]: the EC50 stood at 50 nM.

For the compound `Clc1cc(NC2CCOCC2)c2[nH]c(-c3ccccc3)cc2c1` [Example 48, (Tetrahydropyran-4-yl)-(5-chloro-2-phenyl-1H-indol-7-yl)-amine], the EC50 turned out to be 44 nM.

Consider `Clc1cc(NCC2CCCC2)c2[nH]c(-c3ccccc3)cc2c1` [Example 49, Cyclopentylmethyl-(5-chloro-2-phenyl-1H-indol-7-yl)-amine], for which the EC50 was 133 nM. The same measure, in the same setting: the figure for `Clc1cc(NCC2CCOCC2)c2[nH]c(-c3ccccc3)cc2c1` [Example 50, (Tetrahydropyran-4-ylmethyl)-(5-chloro-2-phenyl-1H-indol-7-yl)-amine] is 43 nM. The same measure, in the same setting: the figure for `Clc1cc(NC2CCN(Cc3ccccc3)C2)c2[nH]c(-c3ccccc3)cc2c1` (centres unmarked) [Example 51, (1-Benzylpyrrolidin-3-yl)-(5-chloro-2-phenyl-1H-indol-7-yl)-amine] is 230 nM; for `CN1CCC(Nc2cc(Cl)cc3cc(-c4ccccc4)[nH]c23)CC1` [Example 52, (1-Methylpiperidin-4-yl)-(5-chloro-2-phenyl-1H-indol-7-yl)-amine] it is 140 nM; for `Clc1cc(NC2CCC3(CC2)OCCO3)c2[nH]c(-c3ccccc3)cc2c1` [Example 53, (1,4-Dioxaspiro[4.5]decan-8-yl)-(5-chloro-2-phenyl-1H-indol-7-yl)-amine] it is 40 nM. On the same count and under the same terms, the value for `OCC(CO)Nc1cc(Cl)cc2cc(-c3ccccc3)[nH]c12` [Example 54, 2-[(5-Chloro-2-phenyl-1H-indol-7-yl)amino]propan-1,3-diol] was 220 nM.

As for `O=S1(=O)CCN(Cc2cc(N(CC3CCOCC3)CC3CCOCC3)c3[nH]c(-c4ccccc4)cc3c2)CC1` [Example 57, Di(tetrahydropyran-4-ylmethyl)-[2-phenyl-5-(1,1-dioxo-thiomorpholin-4-yl)methyl-1H-indol-7-yl]amine], the EC50 was found to be 270 nM. As to `O=S1(=O)CCN(Cc2cc(N(C3CCOCC3)C3CCOCC3)c3[nH]c(-c4ccccc4)cc3c2)CC1` [Example 58, Di(tetrahydropyran-4-yl)-[2-phenyl-5-(1,1-dioxo-thiomorpholin-4-yl)methyl-1H-indol-7-yl]amine], the EC50 was determined as 260 nM.

Consider `OCCN1CCC(Nc2cc(F)cc3cc(-c4ccccc4)[nH]c23)CC1` [Example 60, 2-[4-[(5-Fluoro-2-phenyl-1H-indol-7-yl)amino]piperidin-1-yl]ethanol], for which the EC50 amounted to 170 nM. The same measure, in the same setting: the figure for `Fc1cc(NC2CCN(C3CCOCC3)CC2)c2[nH]c(-c3ccccc3)cc2c1` [Example 61, [1-(Tetrahydropyran-4-yl)piperidin-4-yl]-(5-fluoro-2-phenyl-1H-indol-7-yl)amine] is 260 nM.

Regarding `c1ccc(Oc2cc(NC3CCOCC3)c3[nH]c(-c4ccccc4)cc3c2)cc1` [Example 62, (Tetrahydropyran-4-yl)-(5-phenoxy-2-phenyl-1H-indol-7-yl)-amine], the EC50 is 110 nM.

The experiment is the same for the next values; noted with them: doxorubicin; rat primary hepatocytes; 24-48 h; read-out: EC50, cell protective effects against doxorubicin in hepatocytes.
In the case of `CN1CCC(CNc2cc(F)cc3cc(-c4ccccc4)[nH]c23)CC1` [Example 59, (1-Methyl-piperidinemethyl-4-yl)-[5-fluoro-2-phenyl-1H-indol-7-yl]amine], the EC50 is 200 nM.

Source of the values: patent US9000028B2, “Indole and indazole compounds as an inhibitor of cellular necrosis” (LG Life Sciences Ltd., priority 2007, dated 2015).
